The values below come from patent US7645781B2, “N-aryl-2-oxazolidinone-5-carboxamides and their derivatives” (Pfizer Inc, priority 2002, dated 2010).

Values after ≈ are worked out from the molar mass of the structure shown.

The subject of data set [1] is Staphylococcus aureus (SAUR 9213). As to the kind of experiment: MIC by standard agar dilution method. Type of data set: cell-based. Particulars: Mueller Hinton agar, incubated overnight at 35° C., read-out: MIC. Put shortly:
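Serial 2-fold compound dilutions in Mueller Hinton agar, spot-inoculated with approximately 10^4 to 10^5 cells from a 1:20-diluted 0.5 McFarland suspension in TSB. Incubated overnight at 35 °C; MIC (μg/ml) is the lowest concentration preventing visible growth.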
Background: In agar dilution the substance is mixed into plates at graded concentrations.

Usually MIC stands for the lowest concentration found to suppress growth. As usually defined, the melting point is the temperature of the solid-liquid transition. `CC(C)n1c(=O)oc2cc(N3C[C@H](C(N)=O)OC3=O)ccc21` [Example 40, (5R)-(−)-3-(2,3-Dihydro-3-isopropyl-2-oxo-6-benzoxazolyl)-2-oxo-5-oxazolidinecarboxamide] gave a melting point of 182.5 to 184 °C. Also, the MIC in data set [1] was determined as 4 µg/mL (≈ 13.1 µM).
The corresponding values for `CNC(=O)[C@H]1CN(c2ccc(C3CCS(=O)(=O)CC3)c(F)c2)C(=O)O1` [Example 41, (5R)-(−)-N-Methyl-3-[4-(Tetrahydro-2H-thiopyran-4-yl)-3-fluorophenyl]-2-oxo-5-oxazolidinecarboxamide S,S-dioxide] are 180.5 to 182 °C and 2 µg/mL (≈ 5.4 µM).
Turning to `CNC(=O)[C@H]1CN(c2cc(F)c(N3CCOCC3)c(F)c2)C(=O)O1` [Example 42, (5R)-(−)-N-Methyl-3-[3,5-difluoro-4-(4-morpholinyl)phenyl]-2-oxo-5-oxazolidinecarboxamide], the melting point was in the range of 179 to 181 °C. Besides, the minimum inhibitory concentration (MIC) in data set [1] was found to be 4 µg/mL (≈ 11.7 µM).
For `CNC(=O)[C@H]1CN(c2cc(F)c(N3CC[S+]([O-])CC3)c(F)c2)C(=O)O1` [Example 43, (5R)-(−)-N-Methyl-3-[3,5-difluoro-4-(thiomorpholin-4-yl)phenyl]-2-oxo-5-oxazolidinecarboxamide S-oxide] the same measures were 237 to 241 °C and 4 µg/mL (≈ 10.7 µM).
`CNC(=O)[C@H]1CN(c2cc(F)c(N3CCS(=O)(=O)CC3)c(F)c2)C(=O)O1` [Example 44, (5R)-(−)-N-Methyl-3-[3,5-difluoro-4-(thiomorpholin-4-yl)phenyl]-2-oxo-5-oxazolidinecarboxamide S,S-dioxide] showed a melting point of 243 to 246 °C. Moreover, the MIC in data set [1] stood at 4 µg/mL (≈ 10.3 µM).
`NC(=O)[C@H]1CN(c2cc(F)c(C3CCS(=O)(=O)CC3)c(F)c2)C(=O)O1` [Example 45, (5R)-3-[3,5-Difluoro-4-(Tetrahydro-2H-thiopyran-4-yl)phenyl]-2-oxo-5-oxazolidinecarboxamide S,S-dioxide] had a melting point of 243 to 245 °C. Also, the MIC in data set [1] was 4 µg/mL (≈ 10.7 µM).
In the case of `NC(=O)[C@H]1CN(c2cc(F)c([C@H]3CC[S@@+]([O-])CC3)c(F)c2)C(=O)O1` [Example 46, (5R)-(−)-3-[3,5-Difluoro-4-(cis-tetrahydro-1-oxido-2H-thiopyran-4-yl)phenyl]-2-oxo-5-oxazolidinecarboxamide], the melting point is 283 to 285 °C (dec.). In addition, in data set [1], the MIC is 8 µg/mL (≈ 22.3 µM).
For the molecule `C[C@@H]1Cc2cc(N3C[C@H](C(N)=O)OC3=O)ccc2N1C=O` [Example 49, (5R)-3-[(2R)-2,3-Dihydro-1-formyl-2-methyl-1H-indol-5-yl]-2-oxo-5-oxazolidinecarboxamide], the melting point fell in the range of 228 to 230 °C. In data set [1], the MIC was 8 µg/mL (≈ 27.7 µM).
For `C[C@@H]1Cc2cc(N3C[C@H](C(N)=O)OC3=O)ccc2N1C(=O)CO` [Example 50, (5R)-3-[(2R)-2,3-Dihydro-1-(hydroxyacetyl)-2-methyl-1H-indol-5-yl]-2-oxo-5-oxazolidinecarboxamide], the melting point is 198 to 200 °C. Besides, the MIC in data set [1] came out at 2 µg/mL (≈ 6.26 µM).
`CNC(=O)[C@H]1CN(c2ccc3c(c2)oc(=O)n3C)C(=O)O1` [Example 51, (5R)-(−)-N-Methyl-3-(2,3-dihydro-3-methyl-2-oxo-6-benzoxazolyl)-2-oxo-5-oxazolidinecarboxamide] showed a melting point of 304 to 306 °C. For the same molecule, in data set [1], the MIC was 2 µg/mL (≈ 6.87 µM).
For `CCn1c(=O)oc2cc(N3C[C@H](C(=O)NC)OC3=O)ccc21` [Example 52, (5R)-(−)-N-Methyl-3-(2,3-dihydro-3-ethyl-2-oxo-6-benzoxazolyl)-2-oxo-5-oxazolidinecarboxamide], the melting point was 263 to 265 °C. Further, in data set [1], the minimal inhibitory concentration (MIC) was 2 µg/mL (≈ 6.55 µM).
With `CNC(=O)[C@H]1CN(c2ccc3c(c2)oc(=O)n3C(C)C)C(=O)O1` [Example 53, (5R)-(−)-N-Methyl-3-(2,3-dihydro-3-isopropyl-2-oxo-6-benzoxazolyl)-2-oxo-5-oxazolidinecarboxamide], the melting point lay in the range of 216 to 218 °C. For the same molecule, the minimum inhibitory concentration (MIC) in data set [1] is 2 µg/mL (≈ 6.26 µM).
Take `NC(=O)[C@H]1CN(c2ccc(N3Cc4cccnc4C3)c(F)c2)C(=O)O1` [Example 54, (5R)-3-[4-(5,7-Dihydro-6H-pyrrolo[3,4-b]pyridin-6-yl)-3-fluorophenyl]-2-oxo-5-oxazolidinecarboxamide]: the melting point is 257 °C (dec.). Further, the MIC in data set [1] was 0.5 µg/mL (≈ 1.46 µM).
As to `CNC(=O)[C@H]1CN(c2ccc(N3Cc4cccnc4C3)c(F)c2)C(=O)O1` [Example 55, (5R)-N-Methyl-3-[4-(5,7-dihydro-6H-pyrrolo[3,4-b]pyridin-6-yl)-3-fluorophenyl]-2-oxo-5-oxazolidinecarboxamide], the melting point was 275 °C (dec.). In addition, in data set [1], the MIC worked out at 1 µg/mL (≈ 2.81 µM).
With `NC(=O)[C@H]1CN(c2ccc(C3=NNC(=O)CS3)c(F)c2)C(=O)O1` [Example 64, (5R)-3-[3-Fluoro-4-(5-oxo-5,6-dihydro-4H-[1,3,4]thiadiazin-2-yl)phenyl]-2-oxo-5-oxazolidinecarboxamide], the melting point was 249 to 251 °C. Besides, in data set [1], the minimum inhibitory concentration (MIC) worked out at 0.5 µg/mL (≈ 1.48 µM).
In turn, `CN1C(=O)CCc2cc(N3C[C@H](C(N)=O)OC3=O)cc(F)c21` [Example 82, (5R)-3-(8-Fluoro-1-methyl-2-oxo-1,2,3,4-tetrahydroquinolin-6-yl)-2-oxo-5-oxazolidinecarboxamide] registered a melting point of 260 to 262 °C. For the same molecule, the MIC in data set [1] is 1 µg/mL (≈ 3.25 µM).
As for `CNC(=O)[C@H]1CN(c2cc(F)c3c(c2)CCC(=O)N3C)C(=O)O1` [Example 83, (5R)-N-Methyl-3-(8-fluoro-1-methyl-2-oxo-1,2,3,4-tetrahydroquinolin-6-yl)-2-oxo-5-oxazolidinecarboxamide], the melting point was in the range of 264 to 265 °C. Further, the MIC in data set [1] is 2 µg/mL (≈ 6.22 µM).
